Reference: patent publication US4582827A, “Pesticidal diphenylaziridines” (priority 1983, dated 1986)

Columns and labels:
[1] = system: tobacco hornworm larvae (newly ecdysed fifth-instar); assay: Topical application to tobacco hornworm larvae; format: in vivo, Manduca sexta; details: 2000 μg/larvae (1600 ppm)
Procedure: The test compounds were dissolved either in acetone or hexane and applied to the integument of the test insect with a micro applicator. Newly ecdysed fifth-instar tobacco hornworm larvae weighing between 1-1.5 g were used and toxicity data were obtained in the same way as previously described.

[2] = system: tobacco hornworm (Manduca sexta) larvae; assay: Tobacco hornworm growth and developmental responses to feeding on diets containing the compounds; format: in vivo
Procedure: The compounds produced and described in Example 1 were then tested for pesticidal activity against the tobacco hornworm (Manduca sexta). The screening procedure for these tests began with the larval stage and continued through the pupal and adult stages and finally evaluated egg production. The studies thus permitted the evaluation of the effects of the compounds over several subsequent developmental stages in the total life cycle of the insect, giving estimates of acute toxicity (insecticidalor larvicidal activity) as well as prolonged or delayed effects on development (growth regulation) and reproduction (chemosterilization). The latter are of special importance in conjunction with the integrated pest management approach to insect control.
The test compounds were incorporated into the artificial diet of tobacco hornworm larvae and their subsequent growth and developmental responses were monitored using the following parameters: larval mortality including determination of LD50 values, rate of larval development and weight gain, percent pupation, pupal weight and degree of deformities, percent adult emergence and measures of reproductive capacity such as the number of developed ooctyes, fecundity and fertility. The protocol for the screening tests has been developed over a number of years by Dahlman et al., Comp. Biochem. Physiol. 51A, 33, (1975); Comp. Biochem. Physiol., 52A, 105 (1975); Ent. Exp. et Appl., 22, 123 (1977); Palumbo and D. L. Dahlman, J. Econ. Entomol. 71, 674 (1978); D. L. Dahlman, Ent. Exp. et Appl., 24, 327 (1978).
Each treatment used 15 newly ecdysed fifth-instar larvae. Death of larvae within a few hours to several days of initial exposure was considered to be acute toxicity. However, the compounds may reduce the maximum size attained by larvae and/or may retard growth so that larvae require additional time to attain their maximum size. Developmental parameters subsequent to the feeding stage also may be affected. […] Mortality may occur in the pupal stage or emerging adults may have wrinkled wings or other deformities. The number of eggs produced by treated females may be reduced and/or unfertile. Although acute toxicity is desirable in the control of any insect, the delayed effects which result in poor survival and reduced reproductive capacity are significant factors in the long-range program of pest management systems.
Continuous cultures of M. sexta are maintained according to the procedures of Yamamoto, J. Econ. Entomol., 62, p. 1427 (1969). Ingredients of the diet formulation include sugar, casein, wheat germ oil, cholesterol, salt mixture, yeast, vitamins, antioxidants and fungal inhibitors, such as ascorbic acid, sorbic acid, formaldehyde and methyl-p-benzoate. All are incorporated into a liquid agar base which, when poured into holding pans, solidifies to form an adequate substrate upon which the insect larvae feed. Nearly any test material can be uniformly incorporated into such a diet. Thus, exposure to experimental compounds can be evaluated during all or any part of the larval stage. In addition, chronic or long-term effects in subsequent life stages can also be monitored.
The results from these studies, in which the 1,2-diphenylaziridines of Example 1 were incorporated singly into the diet of M. sexta at a concentration of 5 mM are presented in the following Table I.

[3] = system: H. virescens; assay: Incorporation into H. virescens diet; format: in vivo, Heliothis virescens; details: as much as 20 mM in diet
Procedure: Compounds 1, 10, 11, 13 and 14 were incorporated into H. virescens diet in the same manner as M. Sexta. Diets containing as much as 20 mM of each compound had little effect on larval development time, pupal weight or time to adult emergence.

FC(F)(F)c1ccc(N2CC2c2ccccc2Cl)cc1 (stereo not shown) [Compound 14]
topical effect [1]: ineffective | % Adult Emergence ([2]; 1 mM in diet): 100% | % Adults ([2]; 1 mM in diet): 93% | % Malformed Adults ([2]; 1 mM in diet): 36% | % Pupation ([2]; 1 mM in diet): 93% | Days to Max Wt ([2]; 1 mM in diet): 5.8 ± .1 days | Max Larval Wt ([2]; 1 mM in diet): 9.20 g | Mean No. of Eggs ([2]; 1 mM in diet): 83 ± 13 | No. of female Adults ([2]; 1 mM in diet): 9 | Total No. of Adults ([2]; 1 mM in diet): 14 | % Adult Emergence ([2]; 2.5 mM in diet): 8% | % Adults ([2]; 2.5 mM in diet): 7% | % Malformed Adults ([2]; 2.5 mM in diet): 100% | % Pupation ([2]; 2.5 mM in diet): 93% | Days to Max Wt ([2]; 2.5 mM in diet): 6.6 ± 0.2 days | Max Larval Wt ([2]; 2.5 mM in diet): 8.03 g | Mean No. of Eggs ([2]; 2.5 mM in diet): 0 | No. of female Adults ([2]; 2.5 mM in diet): 1 | Total No. of Adults ([2]; 2.5 mM in diet): 1 | malformed adults ([2]; 2.5 mM in diet): a large percentage | maximum larval weight and mean number of eggs ([2]; 2.5 mM in diet): reduced maximum larval weight and the mean number of eggs | larval death (words in table) ([2]; 5 mM in diet): ALL DEAD WITHIN 3 DAYS | larval mortality ([2]; 5 mM in diet): all or nearly all larvae died | symptoms of larvae ([2]; 5 mM in diet): extreme agitation of larvae, oral and anal expulsion of fluids and ultimately, death | time until all larvae dead ([2]; 5 mM in diet): ≥ 48 h | mortality at 2500 µM ([2]; Manduca sexta, po, 2.5 mM in diet, read-out: pupal mortality): 85% | oral activity ([2]; diet, Example 2): good oral activity | larval mortality (acute toxicity) ([2]; in 24-72 hours, summary of Tables I and II): 100% | pupal mortality ([2]; summary of Tables I and II): caused pupal mortality | time to 100% larval mortality ([2]; summary of Tables I and II): 24 to 72 h | effect on larval development time, pupal weight or time to adult emergence [3]: little effect
